Results on 2 compounds are retold here after US8673914B2, “Use of phosphodiesterase inhibitors for treating multidrug resistance” (St. John's University, priority 2011, dated 2014).

Molecules are shown by their SMILES. Like-named read-outs stand apart in the source and are kept apart here.

Data set [1] has as its system KB-C2 and KB-V1 cells (ABCB1). Briefly: [^3H]-paclitaxel accumulation (Example 2). The following applies: 10 μM. Format: cell-based, human. The method, then:
(§1) Cells in 24-well plates were preincubated with or without the reversal agents for 1 h at 37° C., then incubated with 0.1 μM [^3H]-paclitaxel or 0.2 μM [^3H]-mitoxantrone for 2 h in the presence or absence of the reversal agents at 37° C. After washing 3 times with ice-cold PBS, the cells were trypsinized and lysed in 10 mM lysis buffer (pH 7.4, containing 1% Triton X-100 and 0.2% SDS). Each sample was placed in scintillation fluid and radioactivity was measured in a Packard TRI-CARB 1900CA liquid scintillation analyzer from Packard Instrument Company, Inc.

The next data set has as its system KB-C2 xenografts. The experiment in a line: Mouse tumor xenografts. Type of data set: in vivo, mice. The following applies: sildenafil 75 mg/kg p.o. + paclitaxel 18 mg/kg i.p. vs paclitaxel alone. An excerpt: Six-to-eight-week old male athymic NCR nude mice from Taconic (Hudson, N.Y.) were used for all xenografts. The mice were provided with sterilized food and water. The animal protocol was reviewed and approved by the Institutional Animal Care and Use Committee at St. John's University. […] When the tumors reached 0.5 cm, the mice were randomized into four groups, six mice per group: […] […] Mice were euthanized when the tumor weight exceeded 1 gram in the control group, and the tumors were excised and weighed.

Data set [2] has as its system ABCG2-overexpressing cell lines. The experiment in a line: [^3H]-mitoxantrone accumulation. Format: cell-based. The following applies: 10 or 50 μM. The method, then: as §1
Data set [3] deals with cells expressing wild-type or mutant ABCG2. Briefly: BODIPY-prazosin flow cytometric assay. Type of data set: cell-based. The following applies: 50 μM; weaker than FTC at […]. The procedure: Flow cytometric assays were carried out as follows. […] Cells were then washed once in cold complete medium and then incubated for another 1 h at 37° C. in substrate-free media with or without the same described concentrations of the inhibitors to generate the efflux histograms. Subsequently, cells were washed twice with cold DPBS (Dulbecco's PBS) and placed on ice in a dark environment until ready for analysis. […] For all samples, at least 10,000 events were collected. Cell debris was eliminated by gating on forward versus side scatter, and dead cells were excluded on the basis of propidium iodide staining.

The subject of another data set is parental cells. The experiment in a line: [^3H]-mitoxantrone accumulation. Type of data set: cell-based. The procedure:
(§2) After washing 3 times with ice-cold PBS, the cells were trypsinized and lysed in 10 mM lysis buffer (pH 7.4, containing 1% Triton X-100 and 0.2% SDS). Each sample was placed in scintillation fluid and radioactivity was measured in a Packard TRI-CARB 1900CA liquid scintillation analyzer from Packard Instrument Company, Inc.

Data set [4] concerns MRP7 localization in HEK/MRP7 cells. The experiment in a line: Immunofluorescence of MRP7. Format: cell-based. The following applies: 5 μM; 72 h. The method, then: HEK/MRP7 cells (1×10^4) were seeded in 24 well plates and cultured overnight. […] Cells were washed with PBS and fixed with 4% paraformaldehyde for 15 min at room temperature and then rinsed with PBS three times. Nonspecific reaction was blocked with 1% BSA for 1 h at room temperature. A polyclonal antibody D19 against MRP7 (1:200) was added and incubated overnight. […] DAPI was used for nuclear staining. Immunofluorescent images were taken with an inverted microscope (model IX70; Olympus, Center Valley, Pa.) with IX-FLA fluorescence and CCD camera.

Data set [5] concerns any of the cell lines used. The experiment in a line: MTT assay, sildenafil alone. The following applies: concentrations of up to 50 μM. Format: cell-based. The procedure: Cells in 96-well plates were preincubated with or without the reversal agents for 1 h and then different concentrations of chemotherapeutic drugs were added into designated wells. After 68 h of incubation, MTT solution (4 mg/mL) was added to each well, and the plate was further incubated for 4 h, allowing viable cells to change the yellow-colored MTT into dark-blue formazan crystals. Subsequently the medium was discarded, and […] of DMSO was added into each well to dissolve the formazan crystals. The absorbance was determined at 570 nm by an OPSYS MR Microplate Reader from DYNEX Technologies, Inc.
(In general: Tetrazolium assays rely on reduction of a dye to a coloured formazan, in cell work by metabolically active cells.)

In the next data set the target is T1, ABCB1 (Homo sapiens, UniProt P08183).
T1 construct: made in house; host or cells: High Five insect cells (membrane vesicles / crude membranes)
T1 sequence (P08183 whole entry): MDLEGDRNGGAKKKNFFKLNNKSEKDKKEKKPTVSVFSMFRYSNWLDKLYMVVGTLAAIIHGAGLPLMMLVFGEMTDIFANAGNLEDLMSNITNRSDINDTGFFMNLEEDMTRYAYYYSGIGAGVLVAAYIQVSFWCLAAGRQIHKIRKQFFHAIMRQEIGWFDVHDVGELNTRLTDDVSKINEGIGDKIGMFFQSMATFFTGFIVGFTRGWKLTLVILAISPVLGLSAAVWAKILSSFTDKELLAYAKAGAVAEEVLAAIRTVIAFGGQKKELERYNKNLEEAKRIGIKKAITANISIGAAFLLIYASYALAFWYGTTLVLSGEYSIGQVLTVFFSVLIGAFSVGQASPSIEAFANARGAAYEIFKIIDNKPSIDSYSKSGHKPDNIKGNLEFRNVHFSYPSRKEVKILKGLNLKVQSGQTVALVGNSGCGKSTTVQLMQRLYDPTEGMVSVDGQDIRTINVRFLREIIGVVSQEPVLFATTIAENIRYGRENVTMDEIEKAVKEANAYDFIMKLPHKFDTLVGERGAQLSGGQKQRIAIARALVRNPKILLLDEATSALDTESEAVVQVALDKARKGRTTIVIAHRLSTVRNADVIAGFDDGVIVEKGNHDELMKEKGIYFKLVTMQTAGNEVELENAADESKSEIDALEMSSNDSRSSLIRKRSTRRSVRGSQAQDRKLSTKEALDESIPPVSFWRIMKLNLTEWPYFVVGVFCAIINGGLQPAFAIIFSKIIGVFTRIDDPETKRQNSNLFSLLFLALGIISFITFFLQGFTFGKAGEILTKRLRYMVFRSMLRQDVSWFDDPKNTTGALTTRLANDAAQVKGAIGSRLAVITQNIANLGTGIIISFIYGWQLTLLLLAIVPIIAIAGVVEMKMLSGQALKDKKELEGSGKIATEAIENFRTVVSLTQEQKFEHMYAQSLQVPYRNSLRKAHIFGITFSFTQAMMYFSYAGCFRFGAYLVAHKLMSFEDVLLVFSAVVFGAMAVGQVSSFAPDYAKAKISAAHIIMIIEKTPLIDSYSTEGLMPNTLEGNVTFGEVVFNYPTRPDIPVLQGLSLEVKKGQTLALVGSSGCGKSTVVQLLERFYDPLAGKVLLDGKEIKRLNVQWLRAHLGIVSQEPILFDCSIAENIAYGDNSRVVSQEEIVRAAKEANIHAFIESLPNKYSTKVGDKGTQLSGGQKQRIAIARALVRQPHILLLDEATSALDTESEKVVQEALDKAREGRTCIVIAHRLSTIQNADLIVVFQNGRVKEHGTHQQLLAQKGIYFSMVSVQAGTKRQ
Briefly: Vi-sensitive ATPase assay (Example 2). Format: biochemical. The settings on record: read-out: concentration required for 50% stimulation of ATPase activity. The procedure:
(§3) The vanadate (Vi)-sensitive ATPase activity of ABCB1 or ABCG2 in the membrane vesicles of HIGH FIVE™ insect cells was measured as described in Ambudkar et al., supra. The membrane vesicles (100 μg of protein/mL) were incubated in ATPase assay buffer (50 mM MES, pH 6.8, 50 mM KCl, 5 mM sodium azide, 2 mM EGTA, 2 mM dithiothreitol, 1 mM ouabain, and 10 mM MgCl2) with or without 0.3 mM vanadate at 37° C. for 5 min, and then incubated with different concentrations of drugs at 37° C. for 3 min. The ATPase reaction was […] by the addition of 5 mM Mg-ATP. After incubating at 37° C. for 20 min, the reactions were stopped by adding 0.1 mL of 5% SDS solution. The liberated inorganic phosphate was measured as described in Shukla et al. (2006) Biochemistry 45:8940-51.

The next data set addresses ABCG2 (Homo sapiens, UniProt Q9UNQ0). The experiment in a line: Vi-sensitive ATPase assay (Example 2). Format: biochemical. The following applies: read-out: concentration required for 50% stimulation of ATPase activity. The method, then: as §3
The test system of a further data set is KB-3-1 cells. The experiment in a line: [^3H]-paclitaxel accumulation (Example 2). The settings on record: parental KB-3-1. Format: cell-based, human. The procedure:
as §2

Data set [6] deals with HEK/MRP7 cells. The experiment in a line: [^3H]-paclitaxel accumulation (Example 4). Format: cell-based. The following applies: 5 μM, 2 h. The procedure: (§4) The effect of PDE5 inhibitors on the intracellular accumulation of paclitaxel in HEK293-pcDNA3.1 and HEK/MRP7 cells was measured using [^3H]-paclitaxel. […] For efflux studies, the cells were treated the same as in the drug accumulation study, and then washed three times with ice-cold PBS, and suspended in fresh medium with or without PDE5 inhibitors. Aliquots were evenly collected at various time points (0, 30, 60, and 120 min). Samples from both accumulation and efflux experiments were washed with ice-cold PBS three times and placed in scintillation fluid, and the radioactivity was measured in a Packard TRI-CARB® 1900CA liquid scintillation analyzer from Packard Instrument Company, Inc. (Downers Grove, Ill.).

Data set [7] relates to HEK/MRP7 cells. The experiment in a line: [^3H]-paclitaxel efflux (Example 4). Format: cell-based. The following applies: 5 μM PDE5 inhibitor. The method, then: as §4
The next data set has as its system HEK/ABCB1 (ABCB1). The experiment in a line: MTT cytotoxicity/reversal assay (Example 1). The settings on record: HEK/ABCB1; alone. The method, then:
(§5) The KB-C2 and KB-3-1 were kindly provided by Dr. Akiyama (Kagoshima University, Japan). […] Similarly, the HEK/MRP1 (ABCC1) and HEK/ABCB1 cells were generated by transfecting the HEK293 cells with either the MRP1 expression vector or the ABCB1 expression vector. All of the cell lines were grown in Dulbecco's modified Eagle's medium (DMEM) supplemented with 10% bovine serum, 100 units/ml penicillin, and […] streptomycin in a humidified incubator containing 5% CO2 at 37° C.
(§6) The MTT assay was used to assess cytotoxicity. The cultured cells were harvested with trypsin and resuspended in a final concentration of 4×10^3 cells/well for KB-3-1; 7.5×10^3 cells/well for KB-C2; and 8×10^3 for all of the other cell lines used in this study. Cells were seeded evenly in 96-well multiplates. […] After 68 h of incubation, 20 μl of the MTT solution (4 mg/ml) was added to each well, and the plate was further incubated for 4 h at 37° C., allowing viable cells to convert the yellow-colored MTT into dark-blue formazan crystals. Subsequently, the medium was discarded, and 100 μl of DMSO was added into each well to dissolve the formazan crystals, generating purple color. The absorbance was determined at 570 nm by an OPSYS Microplate Reader from DYNEX Technologies, Inc. (Chantilly, Va.). […] The degree of the reversal of multidrug resistance (MDR) was calculated by dividing the IC50 of an anticancer drug, e.g., an antineoplastic or chemotherapeutic drug (agent, compound), in a cell type in the absence of a reversal agent by the IC50 of the anticancer drug in the same cell type in the presence of the reversal agent. The IC50 values were calculated from survival curves using the Bliss method.

Data set [8] is described as follows: MTT cytotoxicity/reversal assay (Example 1). The settings on record: human. The method, then: as §5, §6
In a further data set the test system is HEK/MRP1 (ABCC1). The experiment in a line: MTT cytotoxicity/reversal assay (Example 1). The settings on record: alone. Format: cell-based. The procedure: as §5, §6
The nature of data set [9]: MTT cytotoxicity/reversal assay (Example 1). Type of data set: cell-based. The following applies: human; HEK/MRP1; alone; read-out: IC50 of vincristine. The procedure: as §5, §6
A further data set deals with HEK293/pcDNA3.1. Briefly: MTT cytotoxicity/reversal assay (Example 1). The settings on record: alone. Format: cell-based. The procedure:
The KB-C2 and KB-3-1 were kindly provided by Dr. Akiyama (Kagoshima University, Japan). HEK293-pcDNA3.1 and wild-type HEK/ABCG2 transfected cells were established by selection with G418 after transfecting HEK293 with either (1) empty pcDNA3.1 vector or (2) pcDNA3.1 vector containing full length of ABCG2 coding arginine (R) at amino acid position 482, and were then cultured in a medium with 2 mg/ml of G418 (ABCG2-482-R2 cells). Similarly, the HEK/MRP1 (ABCC1) and HEK/ABCB1 cells were generated by transfecting the HEK293 cells with either the MRP1 expression vector or the ABCB1 expression vector. All of the cell lines were grown in Dulbecco's modified Eagle's medium (DMEM) supplemented with 10% bovine serum, 100 units/ml penicillin, and […] streptomycin in a humidified incubator containing 5% CO2 at 37° C.
as §6

Sequence of ABCG2 (Q9UNQ0 whole entry): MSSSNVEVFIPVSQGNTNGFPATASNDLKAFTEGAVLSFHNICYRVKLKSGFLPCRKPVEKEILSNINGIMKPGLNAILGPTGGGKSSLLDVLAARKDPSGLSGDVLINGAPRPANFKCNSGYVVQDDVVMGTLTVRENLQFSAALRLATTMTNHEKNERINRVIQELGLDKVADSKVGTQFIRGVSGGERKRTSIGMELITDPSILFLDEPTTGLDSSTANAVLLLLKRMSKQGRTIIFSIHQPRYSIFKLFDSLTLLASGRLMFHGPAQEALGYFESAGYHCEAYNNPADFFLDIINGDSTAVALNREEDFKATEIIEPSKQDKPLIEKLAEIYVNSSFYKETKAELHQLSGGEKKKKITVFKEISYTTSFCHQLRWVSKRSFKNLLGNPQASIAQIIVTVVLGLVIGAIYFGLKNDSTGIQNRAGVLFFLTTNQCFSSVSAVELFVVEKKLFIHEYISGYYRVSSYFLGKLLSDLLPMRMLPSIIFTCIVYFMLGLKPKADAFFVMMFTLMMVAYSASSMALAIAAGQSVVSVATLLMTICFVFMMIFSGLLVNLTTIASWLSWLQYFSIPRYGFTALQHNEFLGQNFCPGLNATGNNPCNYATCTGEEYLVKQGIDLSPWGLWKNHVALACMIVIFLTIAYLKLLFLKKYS

In the case of `CCCc1nn(C)c2c(=O)nc(-c3cc(S(=O)(=O)N4CCN(C)CC4)ccc3OCC)[nH]c12` [Sildenafil, sildenafil], in data set [1], the “intracellular level of [^3H]-paclitaxel” value is listed as “significantly increased the intracellular level”. In addition, the “tumor weight and volume” value with KB-C2 xenografts is “significant reduction in tumor weight and volume”. Further, the “intracellular [^3H]-mitoxantrone levels” value in data set [2] is “elevated intracellular [^3H]-mitoxantrone levels”. The “accumulation of BODIPY-prazosin” value in [3] is “enhanced the accumulation of BODIPY-prazosin”. For the same compound, in the data set with parental cells, the “intracellular levels of [^3H]-mitoxantrone” value was “Neither sildenafil nor FTC affected the intracellular levels”. Moreover, the “MRP7 protein localization in plasma membranes” value in [4] is on record as “no alteration of MRP7 protein localization”. Also, in data set [5], the “growth inhibition by sildenafil alone” value is “did not inhibit the growth of any of the cell lines used”. Besides, the figures for the EC50 at ABCB1 and on ABCG2 were 5000 to 10000 nM and 250 to 500 nM, respectively. Also, in the data set with KB-3-1 cells, the “intracellular levels of [^3H]-paclitaxel” value is “Neither sildenafil nor verapamil altered the intracellular levels”. In addition, the “increase of intracellular accumulation of [^3H]-paclitaxel” value in the data set on HEK/MRP7 cells [6] is recorded as 3.3 fold. Also, the “percentage of intracellular [^3H]-paclitaxel” value in the data set with HEK/MRP7 cells [7] (30 min) amounted to 90.62%; with HEK/MRP7 cells [7] (60 min), 82.14%; with HEK/MRP7 cells [7] (120 min), 62.35%.
For the compound `CC[C@]1(O)C[C@H]2CN(CCc3c([nH]c4ccccc34)[C@@](C(=O)OC)(c3cc4c(cc3OC)N(C=O)[C@H]3[C@@](O)(C(=O)OC)[C@H](OC(C)=O)[C@]5(CC)C=CCN6CC[C@]43[C@@H]65)C2)C1` [Vincristine, vincristine], the “fold reversal, vincristine” value in the data set on HEK/ABCB1 (ABCB1), with HEK/MRP1 (ABCC1), in the data set with HEK293/pcDNA3.1 (HEK293/pcDNA3.1 (Table 6)) and in the data set on HEK293/pcDNA3.1 (HEK293/pcDNA3.1) was “(1.00)” throughout. For the same compound, the results for the IC50 at 68 h in data set [8] and in [9] were 170000 ± 12900 nM and 10.6 ± 2.2 nM, respectively.

In general, IC50 refers to the concentration needed to halve the response being measured.
